Nine compounds from US20080161247A1, “Synergistic composition for modulating activity of substrate analogs for NAD+, NADP+, NADH or NADPH dependent enzymes and process thereof” (priority 2006, published 2008) can be followed below.

In general, Ki refers to the dissociation constant of the complex between target and ligand, obtained from inhibition or displacement. The IC50 is the concentration at which inhibition is half-maximal. As usually defined, the Kd is a measure of binding affinity in units of concentration. What is called inhibition is the change of the read-out against control, counted positive when it falls. Low readings indicate little suppression, high ones strong suppression.

Read-outs that look alike come from different tables or passages of the source.

In test [1] the target is T1, human aldose reductase (ALR2) (Homo sapiens, UniProt P15121).
T1 construct: hexa-His (cleaved yes); made in house; host or cells: E. coli BL-21(DE3)
Nature of the test: Fluorescence quenching dissociation constants with aldose reductase. Format: binding. The method, then: The cloning of human ALR2 gene was done as described before with slight modification. In brief, the open reading frame of the human AR2 gene (Accession GenBank/EMBL Data Bank number J05017) was amplified by the polymerase chain reaction from its cDNA and cloned into the T7 RNA polymerase-based vector pET28a(+) vector (Novagen). The positive clone was sequenced and then transformed into BL-21(DE3) cells for expression. The culture (5 L) was grown at 37° C. till OD600 of 0.8, induced by 1 mM IPTG and grown further at 37° C. for next 3 h. The cells were pelleted, sonicated and the clear supernatant was loaded to Ni-NTA resin. The purified hexa-His tagged human AR2 was subjected to thrombin cleavage and loaded […]. The His-tag cleaved AR2 was further loaded on DEAE Sephadex A-50 column (Pharmacia) and eluted with an NaCl gradient. The purity of the final enzyme preparation was checked on 12% SDS-PAGE.
Ki in all the four cased were calculated strictly using equations mentioned in Example 11.

The subject of another test is P. falciparum culture. As to the kind of experiment: Growth inhibition assay, [3H] hypoxanthine incorporation. Format: cell-based, Plasmodium falciparum. The text has this: Culture media with or without inhibitors was changed daily. Parasites were synchronized at the ring stage with 5% D-sorbitol for all and the cultures were pooled at ring or trophozoite stage with 12-15% parasitemia. Free parasites were released from the red blood cells with 0.15% saponin.
The growth of P. falciparum was quantified by measuring the incorporation of [^3H] hypoxanthine.

Test [2] concerns the target T2, Plasmodium falciparum enoyl-Acyl carrier protein (ACP) reductase (PfENR) (Plasmodium falciparum, UniProt Q9BH77).
T2 sequence (Q9BH77 22-432): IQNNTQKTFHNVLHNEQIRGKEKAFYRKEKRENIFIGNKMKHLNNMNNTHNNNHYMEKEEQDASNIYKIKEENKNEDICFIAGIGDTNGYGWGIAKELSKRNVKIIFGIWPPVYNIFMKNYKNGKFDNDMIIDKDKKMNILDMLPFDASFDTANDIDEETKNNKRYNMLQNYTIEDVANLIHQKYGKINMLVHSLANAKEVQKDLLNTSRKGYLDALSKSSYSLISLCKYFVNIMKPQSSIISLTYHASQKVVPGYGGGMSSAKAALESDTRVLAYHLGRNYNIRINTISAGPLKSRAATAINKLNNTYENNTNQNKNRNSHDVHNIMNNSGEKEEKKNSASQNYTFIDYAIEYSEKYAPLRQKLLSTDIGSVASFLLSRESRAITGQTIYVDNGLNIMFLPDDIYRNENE
As to the kind of experiment: biochemical. The conditions noted are these: for Ki: Dixon plot.
Method: Enzyme assays and inhibition studies were performed on a UV-Vis spectrophotometer (Jasco) at 25° C. in 20 mM Tris/HCl pH 7.4 containing 150 mM NaCl [13, 14]. The standard reaction mixture of 100 μl contained 200 μM crotonoyl-CoA, 100 μM NADH and 30 nM PfENR. All the inhibitors were dissolved in DMSO. 1% V/V DMSO was used in the standard reaction mixture. The reaction proceeds by reduction of crotonoyl-CoA to butyl-CoA with the oxidation of NADH to NAD^+ which is monitored at 340 nm (□∈^M340=6220 M−1 cm−1).
IC50 values of the tea catechins and polyphenolic compounds for PfENR were determined by plotting the percent inhibition of PfENR at various concentrations of inhibitory compounds. […] The percent activity thus calculated was plotted against log of concentration of respective catechins. The data was analyzed by nonlinear regression method using sigmoidal model and IC50 values for each catechin was calculated from the sigmoidal curve.
The sigmoidal curve indicates the best fit for the data.
Ki of individual catechins with respect to NADH and crotonoyl-CoA were determined in separate experiments. […] All the data were analyzed by Dixon plot [8].
All the data of individual experiments were repeated thrice and the mean value was taken for data analysis. The Ki values were determined for each experiment from the X-intercept of the Dixon plot [8].
The data were plotted using the following Dixon equations for competitive and uncompetitive kinetics, respectively.

For test [3], the target named is T3, PfENR (Plasmodium falciparum, UniProt Q9BH77).
T3 construct: The overexpression of PfENR was carried out [22]; made in house
Format: biochemical. The conditions noted are these: triclosan with PfENR in presence of the catechin. How it is done: The reaction was started by the addition of 50 nM of PfENR.
The reaction was monitored at 340 nm and the formation of (NAD^+) was plotted as a function of time using equation 3 to get the dissociation constant by non-linear regression analysis of the data.
Progress curves gave the value of kobs and the k5 or association rate constants were determined by fitting the values of kobs with experimentally determined k6 values in equation 4.
The relationship between Ki, k5, k6 and kobs is described by equation 4.
The overall inhibition constant Ki* is calculated by equation 5.

The target of test [4] is T3, PfENR. The format is binding. The following applies: 1 μM [3H]EGCG. The method, then: Binding studies of [^3H] […] Briefly, for gel filtration chromatography, 2 ml Sephadex G-25 column was packed and equilibrated with the reaction buffer. For each run 50 μl of the reaction mixture was loaded and 20 fractions of 100 μl were collected at 0.25 ml/min flow rate. All the fractions were spotted on Whatman 3 filter paper and dried before taking the counts. In the filter binding assay method, the reaction mixtures were directly applied on the activated Polyvinylidene difluoride (PVDF) membrane fixed in a filtration assembly. The filters were washed with 200 μl of reaction buffer and dried. Dried filters were transferred to vials containing 5 ml scintillation fluid and the radioactivity measured using a Hewlett Packard liquid scintillation counter.
To check the binding of [^3H] […] The concentration of [^3H]
[^3H] […] (FIG. 4d) Double reciprocal plot of the same data is shown in the inset.
The binding constants for the above experiments were determined from saturation plots and by Scatchard plot or double reciprocal plot using equation 2a and 2b described under evaluation section.

The next test deals with P. berghei. As to the kind of experiment: Four day suppressive test, survival of P. berghei infected mice. Format: in vivo, P. berghei in Balb/c mice. The conditions noted are these: P. berghei infected Balb/c mice; triclosan 20 mg/kg, EGCG 30 mg/kg, 4 days. How it is done:
Randomly bred male Balb/c mice, 6 in numbers, weighing 22-25 grams were inoculated intravenously with 10 million P. berghei parasitized red blood cells. […] Giemsa-stained blood smears for 5 days and thereafter was prepared from the infected animals to assess percentage parasitemia. The survival of the mice was monitored for the following week.

The target in test [5] is T3, PfENR. The format is binding. The conditions noted are these: equation 7.
Method: The excitation and emission monochromator slit widths were adjusted at 3 nm. All the reactions were performed in 3 ml quartz cuvette with constant stirring at 25° C. For the binding studies, 4 μM PfENR was incubated with different tea compounds at their saturating concentrations in 20 mM tris and 150 mM NaCl, pH 7.4, excited at 295 nm and change in the fluorescence intensity at the emission maximum of PfENR (340 nm) was recorded.
For tight binding inhibitors k6 can be considered negligible at the early onset of inhibition. So, k5 can be directly calculated from the following equation [13],
The samples were excited at 290 nm and the emission was recorded at 340 nm.
Before calculating Ki and k5 from fluorescence data, the corrections for inner filter effect were made using equation 8.
Another test relates to E. coli O55:B5. Nature of the test: Survival of mice post bacterial infection. The format is in vivo, E. coli in BALB/c mice. The conditions noted are these: BALB/c mice, 10^7 CFU E. coli O55:B5, D-galactosamine primed; triclosan 40 mg/kg, EGCG 50 mg/kg. How it is done:
Agents and Chemother. 12, 3859-3866 (2003) which is detailed below:—
Third group of animals received injections of both Triclosnan and ECGC as above. Controlled group was injected PBS and/or ethanol (500 μl).
For each experiment 6 BALB/c male mice, 6-9 week of age per group were used.
Infection of animals by bacteria: The animals were injected i.p or s.c with 0.4 ml of pyrogen free saline containing 10^7 CFU of bacteria (E. coli O55:B5) and primed with D-galactosamine (300 mg/kg of body weight); (Galanos at al. (1979) Proc. Natl. Acad. Sci. USA, 76, 5939-5943).
The mice was monitored for survival on an hourly basis.

Test [6] concerns fatty acid synthesis in P. falciparum cultures. Nature of the test: Incorporation of [14C] acetate into fatty acids in P. falciparum cultures. The format is cell-based. The following applies: Plasmodium falciparum. How it is done: Fatty acid synthesis in P. falciparum cultures and the effect of a 2′-dihydroxyphenyl ether indicated in formula 1 and 2 with or without flavonoid was evaluated by incorporating [14C] acetate into fatty acids [Surolia and Surolia Nature Medicine, (2001) 7, 167-173].

Where [7] appears, read: binary complex, read-out: Ki with ALR2.
The mark [8] stands for this setting: Plasmodium falciparum, Erythrocyte, growth of malaria culture in red blood cells, read-out: IC50 on P. falciparum culture.
[9] abbreviates: Ki in presence of TCL [nM], Ki of the catechin at 50 nM and 100 nM triclosan.
Where [10] appears, read: Ki w.r.t. NADH [μM], competitive, NADH 50, 100, 200 μM, crotonoyl-CoA 200 μM.
The mark [11] stands for this setting: Ki w.r.t. crotonoyl-CoA [μM], uncompetitive, NADH 100 μM.

As for `O=CC1CCCCC1` [1-Cyclohexylaldehyde], the Ki is 330000 ± 45000 nM in test [1] (setting [7]) and 14.1 ± 3.1 nM in [1] (read-out: Ki value in the presence of quercetin, 2 μM quercetin preincubated).

As to `O=C(/C=C/c1ccc(O)c(O)c1)c1ccc(O)cc1O` [Buteine, butein], the figures for the IC50 (in the test on P. falciparum culture (setting [8]); in [2]) were 49700 nM and 12500 ± 670 nM, respectively. Further, the Ki amounted to 14 ± 0.57 nM in test [2] (setting [9]), 5500 ± 100 nM in test [2] (setting [10]) and 2970 ± 77 nM in [2] (setting [11]). Moreover, the “Association rate constant k5 of triclosan” value (“Association rate constant k5” for short) at PfENR [3] is 2.1 ± 0.108 [10^−3]s^−1.

For `O=C(O[C@@H]1Cc2c(O)cc(O)cc2O[C@@H]1c1ccc(O)c(O)c1)c1cc(O)c(O)c(O)c1` [ECG, (−) epicatechin gallate], the IC50 in the test with P. falciparum culture (Plasmodium falciparum, Erythrocyte, read-out: IC50 on P. falciparum culture) was 4700 nM; in test [2], 500 ± 16 nM. Moreover, the values for the Ki in [2] (setting [9]), in [2] (setting [10]) and in test [2] (setting [11]) were 16 ± 0.45 nM, 291 ± 7.6 nM and 102 ± 4.6 nM, respectively. In addition, the “Association rate constant k5” value at PfENR [3] is 6.3 ± 0.135 [10^−3]s^−1.

Consider `Oc1cc(O)c2c(c1)O[C@H](c1cc(O)c(O)c(O)c1)[C@H](O)C2` [EGC, (−) epigallocatechin], for which the IC50 in the test with P. falciparum culture (setting [8]) came out at 211000 nM; in test [2], 7000 ± 85 nM. Further, the figures for the Ki in test [2] (setting [9]), in [2] (setting [10]) and in [2] (setting [11]) were 17.6 ± 0.67 nM, 3750 ± 54 nM and 2000 ± 78 nM, respectively. The “Association rate constant k5” value on PfENR [3] was 5.4 ± 0.097 [10^−3]s^−1.

Regarding `O=CC(O)CO` (stereo not shown) [Glyceraldehyde, glyceraldehyde], in [1] (2 μM quercetin), the “fold decrease of Kd of glyceraldehyde by quercetin” value is listed as “more than 10 fold”. The Kd is 40000 nM in [1] (Kd of glyceraldehyde in the presence of quercetin, 2 μM quercetin) and 510000 nM in [1] (without quercetin, read-out: Kd of glyceraldehyde with aldose reductase). Also, in [1] (setting [7]), the Ki is 510000 ± 54000 nM.

Regarding `O=c1c(O)c(-c2ccc(O)c(O)c2)oc2cc(O)cc(O)c12` [Quercetin, quercetin], the results for the IC50 (in the test with P. falciparum culture (setting [8]); in [2]) were 20700 nM and 2500 ± 78 nM, respectively. The Ki worked out at 22 ± 0.85 nM in test [2] (setting [9]), 1090 ± 89 nM in test [2] (setting [10]) and 473 ± 11 nM in test [2] (setting [11]). In addition, on PfENR [3], the “Association rate constant k5” value is 3.1 ± 0.0786 [10^−3]s^−1.

Take `Oc1cc(Cl)ccc1Oc1ccc(Cl)cc1Cl` [Triclosan, 5-chloro-2-(2,4-dichlorophenoxy)phenol]: at PfENR [4], the “Association constant of triclosan, double reciprocal plot” value was 14 ± 0.77 µM⁻¹ and the “Association constant of triclosan, saturation kinetics” value turned out to be 22.18 ± 1.7 µM⁻¹. In the test on P. berghei, the “Mice surviving from a group of 6 on Day 6” value came out at 3 ± 1 and the “Mice surviving from a group of 6 on Day 12” value is reported as 1 ± 1. For the same compound, on PfENR [5], the “k5 of triclosan in presence of EGCG from slow decrease of fluorescence” value is reported as 0.0072±0.84×10^−5 s^−1. In the test with E. coli O55:B5, the “Survival Time” value turned out to be 45 ± 6 h. For the same compound, in [6], at 9 µM the inhibition was 90%.

With `CCN(CC)CCCC(C)Nc1ccnc2cc(Cl)ccc12` (stereo not shown) [chloroquine, reference compound], the IC50 with P. falciparum culture (Plasmodium falciparum, read-out: IC50 for chloroquine, strain MP-14) came to 300 nM; in the test with P. falciparum culture (Plasmodium falciparum, read-out: IC50 of chloroquine, strain FCK2) it was 18 nM.

In the case of (−) epigallocatechin gallate [EGCG], in the test with P. falciparum culture (growth of malaria culture in red blood cells, read-out: IC50 on P. falciparum culture), the IC50 was 191000 nM.
